From the supplement of paper PMC10307832

Assays:
Assay in all cases: relative viability (nuclei count vs DMSO), 5 days (fraction); higher = more cells survive
Selisistat = compound: C1CC(C2=C(C1)C3=C(N2)C=CC(=C3)Cl)C(=O)N [Selisistat]
In short: (§1)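 Viability here means nuclei in treated wells divided by nuclei in vehicle wells, reported as the median across plates. Only plates with control CV below 25% and at least one doubling passed. Lung cancer cell lines in 1536-well plates were exposed to five √10-spaced library-drug doses for 5 days and counted from 4× Hoechst images in MetaXpress.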

Serdemetan = compound: c1ccc2c(CCNc3ccc(Nc4ccncc4)cc3)c[nH]c2c1 [Serdemetan]
In short: as §1

Selisistat + Navitoclax = compound: C1CC(C2=C(C1)C3=C(N2)C=CC(=C3)Cl)C(=O)N [Selisistat] + CC1(C)CCC(c2ccc(Cl)cc2)=C(CN2CCN(c3ccc(C(=O)NS(=O)(=O)c4ccc(N[C@H](CCN5CCOCC5)CSc5ccccc5)c(S(=O)(=O)C(F)(F)F)c4)cc3)CC2)C1 [Navitoclax] (partner 0.5 µM)
In short: (§2)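 The day after seeding in 1536-well plates, lung cancer cell lines were treated by pin tool with a single drug, or with a fixed anchor-drug dose together with five library-drug doses (not always all listed) in √10 steps. After 5 days, a combined fix-and-stain solution (final 0.05% Triton X-100, 1% formaldehyde, 1 ug/ml Hoechst) was added. Nuclei counted on 4× images gave relative viability as treated counts over vehicle counts, reported as the median of duplicate plates.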

Serdemetan + Phenformin = compound: c1ccc2c(CCNc3ccc(Nc4ccncc4)cc3)c[nH]c2c1 [Serdemetan] + N=C(N)NC(=N)NCCc1ccccc1 [Phenformin] (partner 250 µM)
In short: as §2

Cell Line | relative viability (Selisistat; 0.4 µM) | relative viability (Selisistat; 1.265 µM) | relative viability (Selisistat; 4 µM) | relative viability (Selisistat; 12.65 µM) | relative viability (Selisistat; 40 µM) | relative viability (Serdemetan; 0.04 µM) | relative viability (Serdemetan; 0.1265 µM) | relative viability (Serdemetan; 0.4 µM) | relative viability (Serdemetan; 1.265 µM) | relative viability (Serdemetan; 4 µM) | relative viability (Selisistat + Navitoclax; first compound 0.4 µM) | relative viability (Selisistat + Navitoclax; first compound 1.265 µM) | relative viability (Selisistat + Navitoclax; first compound 4 µM) | relative viability (Selisistat + Navitoclax; first compound 12.65 µM) | relative viability (Selisistat + Navitoclax; first compound 40 µM) | relative viability (Serdemetan + Phenformin; first compound 0.04 µM) | relative viability (Serdemetan + Phenformin; first compound 0.1265 µM) | relative viability (Serdemetan + Phenformin; first compound 0.4 µM) | relative viability (Serdemetan + Phenformin; first compound 4 µM) | relative viability (Serdemetan + Phenformin; first compound 1.265 µM)
BEN | 1.01 | 0.967 | 0.738 | 0.878 | 0.9 | 0.996 | 0.924 | 1.02 | 0.686 | 0.882 | 0.0717 | 0.0697 | 0.0619 | 0.0731 | 0.0771 | 0.283 | 0.252 | 0.271 | 0.267 | 
EMC-BAC-2 | 0.978 | 0.996 | 0.595 | 0.688 | 0.561 | 0.962 | 1.02 | 0.971 | 0.849 | 0.967 | 1.13 | 1.09 | 1.07 | 1.15 | 1.2 | 0.527 | 0.543 | 0.514 | 0.494 | 0.382
LU99A | 1.09 | 0.992 | 0.987 | 0.874 | 1.01 | 1.01 | 0.911 | 0.903 | 0.52 | 0.427 | 0.797 | 0.864 | 0.864 | 0.915 | 0.966 | 0.887 | 0.891 | 0.763 | 0.354 | 0.417
NCI-H2170 | 1.02 | 0.978 | 0.956 | 1.03 | 1.1 | 1 | 1.02 | 1 | 0.972 | 0.985 | 0.601 | 0.623 | 0.618 | 0.708 | 0.713 | 0.374 | 0.354 | 0.383 | 0.336 | 0.35
NCI-H2347 | 1.02 | 1.09 | 0.716 | 0.993 | 0.99 | 0.982 | 0.887 | 0.903 | 0.603 | 0.7 | 0.846 | 0.847 | 0.588 | 0.792 | 0.853 | 0.52 | 0.382 | 0.366 | 0.289 | 0.3
NCI-H1993 | 0.911 | 0.898 |  | 1.01 | 1.04 | 0.977 | 0.995 | 0.699 | 0.831 | 0.89 | 0.969 | 0.891 |  | 1.03 | 0.986 | 0.516 | 0.539 | 0.596 | 0.532 | 0.454
NCI-H322M | 0.98 | 1.01 |  | 0.994 | 1.01 | 0.9 | 1 | 0.901 | 0.791 | 0.874 | 1.26 | 1.18 |  | 1.26 | 1.47 | 0.667 | 0.788 | 0.774 | 0.706 | 0.718
NCI-H838 | 1.03 | 0.958 | 0.863 | 0.96 | 0.985 | 0.959 | 0.976 | 0.98 | 0.92 | 1.14 | 1.31 | 1.2 | 1.13 | 1.12 | 1.22 | 0.564 | 0.551 | 0.544 | 0.641 | 0.427
HARA | 0.955 | 0.938 | 0.749 | 0.964 | 1.07 | 0.938 | 1.01 | 0.937 | 0.757 | 0.877 | 1.17 | 1.08 | 1.17 | 1.13 | 1.22 | 0.466 | 0.457 | 0.499 | 0.304 | 0.257
NCI-H2087 | 1.18 | 1.06 |  | 0.89 | 0.97 | 1.16 | 1.08 | 0.944 | 0.57 | 0.409 | 1.13 | 0.99 | 1.02 | 0.926 | 0.779 | 0.446 | 0.47 | 0.455 | 0.253 | 0.267
NCI-H1437 | 0.945 | 0.974 | 0.805 | 0.933 | 0.855 | 0.905 | 0.994 | 0.98 | 0.928 | 0.799 | 1.13 | 1.1 | 1.1 | 1.01 | 0.919 | 0.314 | 0.32 | 0.315 | 0.37 | 0.298
NCI-H1792 | 0.927 | 1.18 |  | 0.862 | 0.855 | 0.934 | 0.674 | 0.848 | 0.593 | 0.62 | 0.609 | 0.611 |  | 0.629 | 0.594 | 0.268 | 0.316 | 0.283 | 0.198 | 0.127
ChaGo-K-1 | 1.02 | 0.942 | 0.8 | 0.866 | 0.97 | 0.964 | 0.95 | 0.873 | 0.624 | 0.529 | 0.959 | 1.1 |  | 0.881 | 0.901 | 0.48 | 0.484 | 0.458 | 0.25 | 0.216
COR-L23 | 1.05 | 1.06 | 1.08 | 0.908 | 1.01 | 0.951 | 0.988 | 1.06 | 0.823 | 0.874 | 0.994 | 1.09 | 1.07 | 0.939 | 0.928 | 0.448 | 0.468 | 0.427 | 0.42 | 0.414
COR-L 105 | 0.904 | 0.895 | 0.675 | 0.855 | 0.877 | 0.971 | 0.875 | 0.734 | 0.815 | 0.89 | 0.635 | 0.763 | 0.671 | 0.815 | 0.823 | 0.507 | 0.418 | 0.443 | 0.431 | 0.492
LK-2 | 0.963 | 0.891 | 1 | 0.913 | 1.02 | 0.999 | 1.02 | 1.01 | 0.848 | 0.887 | 1.01 | 0.746 | 0.954 | 0.847 | 1.04 | 0.318 | 0.64 | 0.423 | 0.335 | 0.215
